According to US12414947B2, “Use of FGFR inhibitors for treatment of idiopathic short stature” (CEDARS-SINAI MEDICAL CENTER, priority 2019, dated 2025):

Columns and labels:
[1] = in vivo
Description: (§1) […], they underwent a biopsy for a second recurrence.

[2] = Case report: height growth of patient CC0419 during erdafitinib therapy; type: in vivo, human
Description: FIG. 1 depicts a child's growth chart.
as §1

[3] = tested on: pERK1/2 and pAKT signaling in Patient normal fibroblast cells; conditions: IGF-I 100 ng/ml, IGF-2 100 ng/ml; erdafitinib 0-300 nM
Description: FIG. 4 depicts signaling effects. […] Test working hypothesis using Patient's normal fibroblast cells as the model system. Fibroblasts, grown in αMEM+15% FBS till ˜80% confluency, were serum-starve for 18 hr in αMEM+0.1% BSA.
In vitro assays, with read-outs: signaling (pERK, pAKT), proliferation/survival assays (WST-1).

[4] = Example 3: child with short stature given erdafitinib; type: in vivo, human; conditions: six-month period, from the 10%
Description: A child presents with short stature. […] Their height growth velocity increased resulting in a jump in height from the 10% up to the 50% for their age.

[5] = tested on: Patient normal fibroblast cells; assay: Cell Survival Assay (WST-1) (FIGS. 6, 7); type: cell-based, human
Description: Fibroblasts were seeded 5×10^4 cells/well (96 well format), grow in αMEM+15% for 24 hr. […] WST-1 reagent was added, 10 μl/well, 1 hr, spectrophotometry analysis. 3 wells per test sample. NC, normal control.
Assay set up as described in FIG. 6, except IGF-I (100 ng/ml), IGF2 (100 ng/ml) or FGF2 (40 ng/ml) added as indicated. Cell survival was assayed over 5 days.

[6] = tested on: Patient normal fibroblasts; assay: Immunoblot analysis for apoptosis markers (FIG. 5); type: cell-based, human
Description: FIG. 5 depicts the effects on apoptosis.

For `COc1cc(OC)cc(N(CCNC(C)C)c2ccc3ncc(-c4cnn(C)c4)nc3c2)c1` [Erdafitinib, erdafitinib], which “Dexa bone scan interpretation” value [1] is on record?
Its value is “consistent with osteoporosis”.

What about the “GH, random (rating)” value [1] of the same molecule?
The value was “normal”.

What about the “IGF-1 Z-score” value [1] of the same molecule?
Its value is −1.7.

What about the “IGF-I SDS” value [1] of the same molecule?
Its value is −1.4 SDS.

What about the “IGF-II (rating)” value [1] of the same molecule?
The value was “normal”.

And the “IGFBP-3 (rating)” value [1]?
Its value is “normal”.

And the “Metabolic panel: creatine (rating)” value [1]?
Its value is “below normal”.

And the “RDW (red cell distribution width)” value [1]?
The value was 16.4%.

What about the “Testosterone, free and total (rating)” value [1] of the same molecule?
The value was “abnormally low”.

And the bone age [1]?
Its bone age is ~14 year.

What about the “bone age delay compared to CA (x-ray hand and wrist)” value [1] of the same molecule?
Its value is ~2 yrs.

What about the “bone age, standard deviation below the mean” value [1] of the same molecule?
Its value is “greater than 2 standard deviation”.

And the “events that led to discontinuation” value [1]?
The value was “scoliosis of the thoracic region, kyphosis of the upper cervical region, and hip flexion contractures”.

And the hyperphosphatemia [1]?
Its hyperphosphatemia is “Transient hyperphosphatemia”.

What about the “lumbar spine bone density, standard deviations below mean for age-matched population” value [1] of the same molecule?
Its value is 3.8 standard deviations.

What about the “mean bone density value for the lumbar spine (Dexa)” value [1] of the same molecule?
Its value is 0.6322 gm/sq·cm.

What about the musculoskeletal problems [1] of the same molecule?
The musculoskeletal problems was “rapid growth and kyphosis/scoliosis which required surgery”.

And the “x-ray hand and wrist finding: osteochondrosis” value [1]?
The value was “A suggestion of osteochondrosis”.

What about the “x-ray hand and wrist finding: periosteal reaction” value [1] of the same molecule?
Its value is “Periosteal reaction (distal radius, ulna, first metacarpal)”.

And the “adverse events that led to dose reduction” value ([1]; po)?
Its value is “musculoskeletal pain and high phosphorus levels”.

And the “total growth in height” value ([2]; 9-month therapy (7 mg then 5 mg orally daily) plus one month after cessation)?
The value was 14.3 cm.

What about the “total growth in height” value ([2]; 9-month therapy plus one month after cessation) of the same molecule?
The value was 5.63 inches.

And the height percentile ([2]; 10 months from initiation of treatment, from 15th percentile)?
Its height percentile is 70 percentile.

And the growth velocity ([2]; on therapy, from 3.653 cm/year before)?
Its growth velocity is 18.06 cm/year.

What about the “growth velocity (percentile)” value ([2]; on therapy, from 40% before, wildtype germline FGFR) of the same molecule?
Its value is > 99%.

What about the height percentile ([2]; starting ~2 months into therapy, from ~15 percentile) of the same molecule?
The height percentile was 23 percentile.

And the height percentile ([2]; within one month of initiating treatment, from 15th percentile, child)?
The height percentile was 48 percentile.

What about the “pERK1/2 in presence of ligands (IGF-1, IGF2)” value [3] of the same molecule?
Its value is “remains erdafitinib-suppressed”.

And the “height percentile for age” value [4]?
The value was 50%.

What about the “cell survival (WST-1)” value ([5]; 0-300 nM, 1-5 days, serum-free media, 5×10^4 cells/well) of the same molecule?
The value was “dose-dependently decreased survival”.

What about the “survival of erdafitinib-treated cells with growth factors (WST-1)” value ([5]; IGF-I 100 ng/ml, IGF2 100 ng/ml or FGF2 40 ng/ml, over 5 days) of the same molecule?
Its value is “IGF-I, but not FGF2, has significant protective effects”.

What about the “apoptotic markers, cleaved Caspase 3 and cleaved PARP” value ([6]; by 24 hrs, erdafitinib treated cells without IGF-I) of the same molecule?
Its value is “detected”.

What about the “apoptotic markers when IGF-I was present” value ([6]; lysates 24 and 48 hr post-treatment, IGF-I 100 ng/ml) of the same molecule?
Its value is “not detected (or significantly blunted)”.
